Test results: patent publication US20260364079A1 (Principia Biopharma Inc., priority 2022, published 2026)

Test: phase 1/2 study in relapsed/refractory ITP (NCT03395210), safety
Conditions: for Abdominal discomfort / Abdominal distension / Abdominal pain / Abnormal dreams / Akathisia / Alopecia / Anemia / Any TEAE / Arthralgia / Arthropod bite / Back pain / Conjunctival hemorrhage / Contusion / Costochondritis / Cough / Decreased appetite / Defecation urgency / Diarrhea / Dizziness / Dyspepsia / Dyspnea / Dyspnea exertional / Edema / Epigastric discomfort / Epistaxis / Erysipelas / Fatigue / Frequent bowel movements / Gingival bleeding / Headache / Heavy menstrual bleeding / Hypoesthesia / Hypophosphatemia / I lot flush / Ilypokalemia / Increased white blood cell count / Maculo-papular rash / Malaise / Micturition urgency / Muscle spasms / Myalgia / Nasal congestion / Nasopharyngitis / Nausea / Peripheral swelling / Petechiae / Pruritus / Purpura / Rash / Thrombocytopena / Upper abdominal pain / Upper respiratory tract infection / Urinary tract infection / Vomiting: TEAE any cause
Excerpt: The Safety Population was used for all safety analyses.
Pre-existing conditions that worsened during a study were reported as AEs.
Safety was graded per NCI CTCAE, version 4.0.

[1] = 45 patients initiating 400 mg bid
[2] = any cause, unrelated to rilzabrutinib treatment, patients
[3] = baseline through end of treatment

CC(C)(C=C(C#N)C(=O)N1CCC[C@@H](n2nc(-c3ccc(Oc4ccccc4)cc3F)c3c(N)ncnc32)C1)N1CCN(C2COC2)CC1 (mixture of isomers) [rilzabrutinib, (R)-2-[3-[4-amino-3-(2-fluoro-4-phenoxy-phenyl)pyrazolo[3,4-d]pyrimidin-1-yl]piperidine-1-carbonyl]-4-methyl-4-[4-(oxetan-3-yl)piperazin-1-yl]pent-2-enenitrile]
Rescue medication use (200 mg qd): 1 patient
Rescue medication use (300 mg bid, patients): 1
Rescue medication use (400 mg bid, patients): 5
dose reductions/interruptions due to adverse events [1]: no dose reductions/interruptions due to adverse events
dose-limiting toxicities [1]: no dose-limiting toxicities
tolerability (ITP patients): well-tolerated
treatment-related bleeding or thrombotic events (ITP patients): no reported treatment-related bleeding or thrombotic events
Abdominal discomfort (any grade): 1 (2) number of patients (percent)
Abdominal distension (any grade): 6 (10) number of patients (percent)
Abdominal pain (any grade): 3 (5) number of patients (percent)
Abnormal dreams (any grade): 1 (2) number of patients (percent)
Akathisia (any grade): 1 (2) number of patients (percent)
Alopecia (any grade): 2 (3) number of patients (percent)
Anemia (any grade): 4 (7) number of patients (percent)
Any TEAE (any grade): 48 (80) number of patients (percent)
Arthralgia (any grade): 5 (8) number of patients (percent)
Arthropod bite (any grade): 3 (5) number of patients (percent)
Back pain (any grade): 8 (13) number of patients (percent)
Conjunctival hemorrhage (any grade): 5 (8) number of patients (percent)
Contusion (any grade): 11 (18) number of patients (percent)
Costochondritis (any grade): 2 (3) number of patients (percent)
Cough (any grade): 2 (3) number of patients (percent)
Decreased appetite (any grade): 1 (2) number of patients (percent)
Defecation urgency (any grade): 1 (2) number of patients (percent)
Diarrhea (any grade): 22 (37) number of patients (percent)
Dizziness (any grade): 2 (3) number of patients (percent)
Dyspepsia (any grade): 4 (7) number of patients (percent)
Dyspnea (any grade): 2 (3) number of patients (percent)
Dyspnea exertional (any grade): 2 (3) number of patients (percent)
Edema (any grade): 2 (3) number of patients (percent)
Epigastric discomfort (any grade): 1 (2) number of patients (percent)
Epistaxis (any grade): 2 (3) number of patients (percent)
Erysipelas (any grade): 1 (2) number of patients (percent)
Fatigue (any grade): 12 (20) number of patients (percent)
Frequent bowel movements (any grade): 1 (2) number of patients (percent)
Gingival bleeding (any grade): 3 (5) number of patients (percent)
Headache (any grade): 7 (12) number of patients (percent)
Heavy menstrual bleeding (any grade): 2 (3) number of patients (percent)
Hypoesthesia (any grade): 1 (2) number of patients (percent)
Hypophosphatemia (any grade): 2 (3) number of patients (percent)
I lot flush (any grade): 1 (2) number of patients (percent)
Ilypokalemia (any grade): 1 (2) number of patients (percent)
Increased white blood cell count (any grade): 1 (2) number of patients (percent)
Maculo-papular rash (any grade): 1 (2) number of patients (percent)
Malaise (any grade): 1 (2) number of patients (percent)
Micturition urgency (any grade): 1 (2) number of patients (percent)
Muscle spasms (any grade): 2 (3) number of patients (percent)
Myalgia (any grade): 1 (2) number of patients (percent)
Nasal congestion (any grade): 2 (3) number of patients (percent)
Nasopharyngitis (any grade): 3 (5) number of patients (percent)
Nausea (any grade): 21 (35) number of patients (percent)
Peripheral swelling (any grade): 3 (5) number of patients (percent)
Petechiae (any grade): 4 (7) number of patients (percent)
Pruritus (any grade): 2 (3) number of patients (percent)
Purpura (any grade): 2 (3) number of patients (percent)
Rash (any grade): 3 (5) number of patients (percent)
Thrombocytopena (any grade): 2 (3) number of patients (percent)
Upper abdominal pain (any grade): 3 (5) number of patients (percent)
Upper respiratory tract infection (any grade): 3 (5) number of patients (percent)
Urinary tract infection (any grade): 2 (3) number of patients (percent)
Vomiting (any grade): 4 (7) number of patients (percent)
Abdominal discomfort (grade 1): 1 (2) number of patients (percent)
Abdominal distension (grade 1): 6 (10) number of patients (percent)
Abdominal pain (grade 1): 1 (2) number of patients (percent)
Abnormal dreams (grade 1): 1 (2) number of patients (percent)
Akathisia (grade 1): 1 (2) number of patients (percent)
Alopecia (grade 1): 2 (3) number of patients (percent)
Anemia (grade 1): — (represents zero events)
Any TEAE (grade 1): 43 (72) number of patients (percent)
Arthralgia (grade 1): 3 (5) number of patients (percent)
Arthropod bite (grade 1): 3 (5) number of patients (percent)
Back pain (grade 1): 7 (12) number of patients (percent)
Conjunctival hemorrhage (grade 1): 5 (8) number of patients (percent)
Contusion (grade 1): 7 (12) number of patients (percent)
Costochondritis (grade 1): 2 (3) number of patients (percent)
Cough (grade 1): 2 (3) number of patients (percent)
Decreased appetite (grade 1): 1 (2) number of patients (percent)
Defecation urgency (grade 1): — (represents zero events)
Diarrhea (grade 1): 19 (32) number of patients (percent)
Dizziness (grade 1): 2 (3) number of patients (percent)
Dyspepsia (grade 1): 3 (5) number of patients (percent)
Dyspnea (grade 1): 2 (3) number of patients (percent)
Dyspnea exertional (grade 1): 2 (3) number of patients (percent)
Edema (grade 1): 2 (3) number of patients (percent)
Epigastric discomfort (grade 1): — (represents zero events)
Epistaxis (grade 1): 2 (3) number of patients (percent)
Erysipelas (grade 1): — (represents zero events)
Fatigue (grade 1): 10 (17) number of patients (percent)
Frequent bowel movements (grade 1): — (represents zero events)
Gingival bleeding (grade 1): 3 (5) number of patients (percent)
Headache (grade 1): 7 (12) number of patients (percent)
Heavy menstrual bleeding (grade 1): 1 (2) number of patients (percent)
Hypoesthesia (grade 1): — (represents zero events)
Hypophosphatemia (grade 1): — (represents zero events)
I lot flush (grade 1): — (represents zero events)
Ilypokalemia (grade 1): 1 (2) number of patients (percent)
Increased white blood cell count (grade 1): — (represents zero events)
Maculo-papular rash (grade 1): 1 (2) number of patients (percent)
Malaise (grade 1): 1 (2) number of patients (percent)
Micturition urgency (grade 1): 1 (2) number of patients (percent)
Muscle spasms (grade 1): 2 (3) number of patients (percent)
Myalgia (grade 1): 1 (2) number of patients (percent)
Nasal congestion (grade 1): 1 (2) number of patients (percent)
Nasopharyngitis (grade 1): 2 (3) number of patients (percent)
Nausea (grade 1): 18 (30) number of patients (percent)
Peripheral swelling (grade 1): 3 (5) number of patients (percent)
Petechiae (grade 1): 4 (7) number of patients (percent)
Pruritus (grade 1): 1 (2) number of patients (percent)
Purpura (grade 1): 2 (3) number of patients (percent)
Rash (grade 1): 1 (2) number of patients (percent)
Thrombocytopena (grade 1): — (represents zero events)
Upper abdominal pain (grade 1): 2 (3) number of patients (percent)
Upper respiratory tract infection (grade 1): 2 (3) number of patients (percent)
Urinary tract infection (grade 1): 1 (2) number of patients (percent)
Vomiting (grade 1): 3 (5) number of patients (percent)
Abdominal discomfort (grade 2): — (represents zero events)
Abdominal distension (grade 2): — (represents zero events)
Abdominal pain (grade 2): 2 (3) number of patients (percent)
Abnormal dreams (grade 2): — (represents zero events)
Akathisia (grade 2): — (represents zero events)
Alopecia (grade 2): — (represents zero events)
Anemia (grade 2): 2 (3) number of patients (percent)
Any TEAE (grade 2): 30 (50) number of patients (percent)
Arthralgia (grade 2): 2 (3) number of patients (percent)
Arthropod bite (grade 2): — (represents zero events)
Back pain (grade 2): 1 (2) number of patients (percent)
Conjunctival hemorrhage (grade 2): — (represents zero events)
Contusion (grade 2): 3 (5) number of patients (percent)
Costochondritis (grade 2): — (represents zero events)
Cough (grade 2): — (represents zero events)
Decreased appetite (grade 2): — (represents zero events)
Defecation urgency (grade 2): 1 (2) number of patients (percent)
Diarrhea (grade 2): 3 (5) number of patients (percent)
Dizziness (grade 2): — (represents zero events)
Dyspepsia (grade 2): 1 (2) number of patients (percent)
Dyspnea (grade 2): — (represents zero events)
Dyspnea exertional (grade 2): — (represents zero events)
Edema (grade 2): — (represents zero events)
Epigastric discomfort (grade 2): 1 (2) number of patients (percent)
Epistaxis (grade 2): — (represents zero events)
Erysipelas (grade 2): 1 (2) number of patients (percent)
Fatigue (grade 2): 2 (3) number of patients (percent)
Frequent bowel movements (grade 2): 1 (2) number of patients (percent)
Headache (grade 2): — (represents zero events)
Heavy menstrual bleeding (grade 2): 1 (2) number of patients (percent)
Hypoesthesia (grade 2): 1 (2) number of patients (percent)
Hypophosphatemia (grade 2): 2 (3) number of patients (percent)
I lot flush (grade 2): 1 (2) number of patients (percent)
Ilypokalemia (grade 2): — (represents zero events)
Increased white blood cell count (grade 2): 1 (2) number of patients (percent)
Maculo-papular rash (grade 2): — (represents zero events)
Malaise (grade 2): — (represents zero events)
Micturition urgency (grade 2): — (represents zero events)
Muscle spasms (grade 2): — (represents zero events)
Myalgia (grade 2): — (represents zero events)
Nasal congestion (grade 2): 1 (2) number of patients (percent)
Nasopharyngitis (grade 2): 1 (2) number of patients (percent)
Nausea (grade 2): 3 (5) number of patients (percent)
Peripheral swelling (grade 2): — (represents zero events)
Petechiae (grade 2): — (represents zero events)
Pruritus (grade 2): 1 (2) number of patients (percent)
Purpura (grade 2): — (represents zero events)
Rash (grade 2): 2 (3) number of patients (percent)
Thrombocytopena (grade 2): — (represents zero events)
Upper abdominal pain (grade 2): 1 (2) number of patients (percent)
Upper respiratory tract infection (grade 2): 1 (2) number of patients (percent)
Urinary tract infection (grade 2): 1 (2) number of patients (percent)
Vomiting (grade 2): 1 (2) number of patients (percent)
Abdominal discomfort (grade 3/4): — (represents zero events)
Abdominal distension (grade 3/4): — (represents zero events)
Abdominal pain (grade 3/4): — (represents zero events)
Abnormal dreams (grade 3/4): — (represents zero events)
Akathisia (grade 3/4): — (represents zero events)
Alopecia (grade 3/4): — (represents zero events)
Anemia (grade 3/4): 2 (3) number of patients (percent)
Arthralgia (grade 3/4): — (represents zero events)
Arthropod bite (grade 3/4): — (represents zero events)
Back pain (grade 3/4): — (represents zero events)
Conjunctival hemorrhage (grade 3/4): — (represents zero events)
Contusion (grade 3/4): 1 (2) number of patients (percent)
Costochondritis (grade 3/4): — (represents zero events)
Cough (grade 3/4): — (represents zero events)
Decreased appetite (grade 3/4): — (represents zero events)
Defecation urgency (grade 3/4): — (represents zero events)
Diarrhea (grade 3/4): — (represents zero events)
Dizziness (grade 3/4): — (represents zero events)
Dyspepsia (grade 3/4): — (represents zero events)
Dyspnea (grade 3/4): — (represents zero events)
Dyspnea exertional (grade 3/4): — (represents zero events)
Edema (grade 3/4): — (represents zero events)
Epigastric discomfort (grade 3/4): — (represents zero events)
Epistaxis (grade 3/4): — (represents zero events)
Erysipelas (grade 3/4): — (represents zero events)
Fatigue (grade 3/4): — (represents zero events)
Frequent bowel movements (grade 3/4): — (represents zero events)
Headache (grade 3/4): — (represents zero events)
Heavy menstrual bleeding (grade 3/4): — (represents zero events)
Hypoesthesia (grade 3/4): — (represents zero events)
Hypophosphatemia (grade 3/4): — (represents zero events)
I lot flush (grade 3/4): — (represents zero events)
Ilypokalemia (grade 3/4): — (represents zero events)
Increased white blood cell count (grade 3/4): — (represents zero events)
Maculo-papular rash (grade 3/4): — (represents zero events)
Malaise (grade 3/4): — (represents zero events)
Micturition urgency (grade 3/4): — (represents zero events)
Muscle spasms (grade 3/4): — (represents zero events)
Myalgia (grade 3/4): — (represents zero events)
Nasal congestion (grade 3/4): — (represents zero events)
Nasopharyngitis (grade 3/4): — (represents zero events)
Nausea (grade 3/4): — (represents zero events)
Peripheral swelling (grade 3/4): — (represents zero events)
Petechiae (grade 3/4): — (represents zero events)
Pruritus (grade 3/4): — (represents zero events)
Purpura (grade 3/4): — (represents zero events)
Rash (grade 3/4): — (represents zero events)
Thrombocytopena (grade 3/4): 2 (3) number of patients (percent)
Upper abdominal pain (grade 3/4): — (represents zero events)
Upper respiratory tract infection (grade 3/4): — (represents zero events)
Urinary tract infection (grade 3/4): — (represents zero events)
Vomiting (grade 3/4): — (represents zero events)
Rescue medication use (all patients): seven
grade 3 anemia (any cause, unrelated to rilzabrutinib treatment): 2 n
grade 3 abnormal alanine aminotransferase levels [2]: one each
grade 3 contusion [2]: one each
grade 3 gastrointestinal hemorrhage [2]: one each
grade 3 hematoma [2]: one each
grade 3 immune thrombocytopenia [2]: one each
grade 3 myelofibrosis [2]: one each
grade 3 thrombocytopenia [2]: one each
grade 4 Evans syndrome [2]: one each
grade 4 thrombocytopenia [2]: one each
≥1 treatment-related, treatment-emergent adverse event (any grade): 52%
grade 3, 4, or 5 bleeding events (IBLS Bleeding Scale) (baseline or week 24/EOS, n=34): no grade 3, 4, or 5 bleeding events
IBLS bleeding scale scores within each domain [3]: no increase in bleeding from baseline through the end of treatment
IBLS bleeding scale scores, skin and oral sites [3]: improved at skin and oral sites
